In patent US7605175B2, “Inhibitors of cyclin-dependent kinases, compositions and uses related thereto” (GPC Biotech AG, priority 2001, dated 2009):
One block for each compound: values may come before it.

Tests used:
[1] = test system: IMR90 cells; test: Calcein AM viability assay, IMR90; format: cell-based; conditions: Homo sapiens, IMR-90, 72 h, read-out: IMR90 viability IC50
Protocol: The potency of Cdk inhibitors, as measured by loss of cellular viability, was determined with the Calcein AM assay (Molecular Probes). Calcein AM is a substrate of intracellular esterases, which is cleaved only in viable cells to generate a fluorescent product that can be quantified with a fluorescent plate reader. The fluorescent signal is proportional to the number of viable cells, and thus loss of signal in response to the exposure of cells to Cdk inhibitors correlates with a loss of viability. This assay can distinguish cell cycle arrest, in which cells may still by viable, from loss of viability and is thus well suited for the evaluation of Cdk inhibitors. A compound that is a potent cytotoxic, may cause significant loss of cell viability in such assay.
Cellular IC50's were determined in the human colorectal carcinoma cell line, HCT-116, and the normal human fibroblast, IMR90. Protein adjusted IC50's were also determined in HCT-116.
HCT-116 or IMR90 cells were recovered from sub-confluent plates by trypsinization and 1,000 or 4,000 cells, respectively, were plated in 24-well dishes and incubated overnight at 37° C., 5% CO2. […]
A 5 μM Calcein AM solution was prepared by dissolving a […] aliquot of Calcein (Molecular Probes catalog # C3100) in 50 μl DMSO. […] (protected from light) and the fluorescent signal was read on a fluorescent plate reader (excitation 485/20 and emission 530/25).

[2] = test system: HCT-116 cells; test: Calcein AM viability assay, HCT-116; format: cell-based; conditions: Homo sapiens
How it was run: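 Cells plated (1,000 HCT-116 in RPMI-1640/10% FCS; 4,000 IMR90 in MEM-alpha/10% FCS), adhered overnight, then given 7 doses of compound at 0-250 nM for 72 h at 37 °C. Viability read by Calcein AM fluorescence (ex 485, em 530) after 75 min; IC50 derived.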

[3] = test system: arrested HCT-116 cells; test: Arrested cell assay, arrested HCT-116 tumor cells; format: cell-based; conditions: Homo sapiens, serum-starved arrested cells, 72 hours, read-out: Arrested cell assay HCT IC50
Protocol: (§1) Cyclin-dependent kinase (Cdk) activity is required to promote the progression of cells through distinct phases of the cell division cycle. The proliferation of normal, non-transformed, cells in culture requires the presence of growth factors, the removal of which, through serum deprivation, leads to a loss of Cdk activity and consequent exit from the cell cycle as cells enter the quiescent phase, G0.
HCT-116 cells were plated in triplicate for each compound concentration to be tested in RPMI 1640 media containing 10% fetal calf serum at a density of either 200 or 2,000 cells per well in 24 well dishes, and incubated overnight at 37° C., 5% CO2. The media from the plate containing 2,000 cells per well was removed, cells were washed once with serum free media and 1 ml of serum free media was placed on cells. The plates containing cells both in the presence and absence of serum were incubated for 6 additional days.
(§2) The cells are incubated in the presence of the compounds for 72 hours (3 days) at 37° C. […] Cycling and arrested HCT-116 cells as well as cycling IMR90 cells were exposed to a panel of 6 doses ranging from 5 to 250 nM. For arrested normal cells, the range of doses was increased to 50 nM to 25 μM, to compensate for the expected decrease in activity.
(§3) The effect of 72 hours of compound exposure on cellular viability was assessed in the Calcein AM assay. Calcein AM is a fluorescent substrate of intracellular esterases that are only active in viable cells. Cleavage of the substrate thus provides a measure of viability, which is proportional to cell number.
(§4) A Calcein AM stock solution was prepared by dissolving a 50 μg aliquot (Molecular Probes catalogue # C3100) in 50 μl DMSO. The tube was incubated at room temperature for approximately 10 minutes to ensure that the Calcein had dissolved completely. The calcein was diluted into 10 ml PBS to prepare the final solution, which was protected from light.
(§5) The media was aspirated off the cells, which were then washed twice with 1 ml PBS to remove the PBS completely from cells by aspiration. 0.5 ml of the Calcein/PBS solution was transferred by pipette into each well. The plates were incubated at 37° C. for 75 minutes (protected from light) and read on a fluorescent plate reader (excitation 485/20 and emission 530/25).

[4] = biological target: protein kinase C (mixed isozymes); test: Protein kinase C TCA precipitation assay; format: biochemical, rat; conditions: Table 5; read-out: PKC IC50
Protocol: Enzymes: Cdc2/cyclin B was obtained from commercial sources. Cdk2/his-cyclin Eshort was expressed in Sf9 cells. Cdk2/cyclin A, cdk4/cyclin D1, and cdk6/cyclin D2 were expressed in Sf9 cells. Protein kinase A (catalytic subunit, from bovine heart) and protein kinase C (mixed isozymes from rat brain) were obtained from commercial sources.
Protein kinase C and protein kinase A were assayed using a TCA precipitation assay with Histone H1 as a substrate. For protein kinase A, the final assay contained 50 mM Tris, 10 mM MgCl2, 1 mM dithiothreitol, pH 7.5, 12 μM adenosine triphosphate, 10% (v/v) dimethylsulfoxide (from compounds), 20 μg Histone H1, 2 μCi [γ-^32P] adenosine triphosphate, 0.2 U protein kinase A in a 100 μL assay. A protein kinase C assay contained 50 mM Tris, 10 mM MgCl2, 1 mM dithiothreitol, 0.8 mM CaCl2, pH 7.5, 5 μM adenosine triphosphate, 10% (v/v) dimethylsulfoxide (from compounds), 20 μg Histone H1, 2 μCi [γ-^32P] adenosine triphosphate, 0.01 U protein kinase C in a 50 μL assay. The assays were started by the addition of enzyme, allowed to react for 10 min at 30° C., and stopped by adding 0.4 volumes of 237 mM disodium ethylenediamine tetraacetate, 105 mM adenosine triphosphate, pH 8.0. […] The filters were washed ten times with 25% (w/v) trichloroacetic acid, and the amount of incorporated [^32P]phosphate was determined by adding 100 μl Microscint and scintillation counting.

[5] = test system: HCT-116 cells; test: BrdU incorporation assay; format: cell-based; conditions: Homo sapiens, read-out: Brd U, concentration that inhibits BrdU incorporation by 50%
Protocol: This method measured the percentage of cells that incorporated the nucleotide analog, BrdU, into newly synthesized DNA as cells progressed through the S phase of the cell cycle. The inhibition of BrdU incorporation was used as a measure of a Cdk inhibitor's effect on S phase progression and DNA replication.
3 sets of HCT-116 cells (100,000 cells/set) were plated in T25 flasks and incubated with a test compound as above. Analysis was done at 24, 48, and 72 hours. BrdU was added to each T-25 flask from a stock of 10 mg/ml to a final concentration of 10 μM and the cells were incubated for an additional 16-18 hours at 37° C. The cells were then prepared for flow cytometric analysis according to manufacturer's protocol (BrdU Flow kit, BD-Pharmingen catalogue #2354KK) as follows:
Cells were harvested (adherent and floating) from the T25 flasks directly into Falcon 12×75 flow cytometric tubes as above followed by fixation and permeabilization with the addition of 100 μl of Cytofix/Cytoperm buffer (30 minutes, room temperature). The cells were then washed with 1 ml of Perm Wash buffer and the cell pellets were resuspended in 100 μl Cytoperm Plus buffer and incubated on ice for 10 minutes. The cells were then washed again with 1 ml of Perm Wash buffer and the fixation was repeated in 100 μl of Cytofix/Cyto Perm buffer for 10 minutes at room temperature. The cells were then washed with 1 ml of Perm Wash buffer. The cells were next treated for one hour at 37° C. with 100 μl DNase to expose incorporated BrdU followed by another wash step with 1 ml of Perm Wash buffer. […] Cells were protected from light and incubated at room temperature for 20-30 minutes. Following the incubation, the cells were washed with 1 ml of Perm Wash buffer, resuspended in 300 μl of 2% FBS in PBS, and analyzed on the flow cytometer. Results are presented in Table 2 as the concentration of compound (μM) that inhibits of BrdU incorporation by 50%.

[6] = test system: arrested IMR90 cells; test: Arrested cell assay, arrested IMR90 normal cells; format: cell-based; conditions: Homo sapiens, IMR-90; serum-starved arrested cells, 72 hours; read-out: Arrested cell assay IMR90 IC50
Protocol: as §1
IMR90 cells were plated in triplicate for each compound concentration to be tested in MEM-A media containing 10% fetal calf serum at a density of either 2,000 or 20,000 cells per well in 24-well dishes and incubated overnight at 37° C., 5% CO2. The media was removed from the 20,000 cell-per-well dish, cells were washed once with serum-free media, and serum-free media was placed on cells. The plates containing cells both in the presence and absence of serum were incubated for 3 additional days.
as §2, §3, §4, §5

[7] = test system: adriamycin resistant cell line (ADR-res); test: NCI panel (SRB), adriamycin resistant cell line; format: cell-based; conditions: Homo sapiens
Excerpt: (§6) The evaluation of compounds at the National Cancer Institute in their panel of 60 cell lines provides a wealth of information regarding efficacy in a wide range of tumor types and genetic backgrounds. Included within this panel are cell lines derived from leukemia, melanoma and cancers of the lung, colon, brain, ovary, breast, prostate and kidney. Use of this panel provides a measure of the efficacy of compounds in cells with alterations in many genes that are associated with neoplastic transformation including p53 and Her2/Neu as well as those involved in metabolism and those which confer multi-drug resistance. The data generated in these cell lines with the protocol described below can be used to evaluate the activity of compounds.
Cells were grown in RPMI-1640 10% FCS and plated in 96 well micro-titer plates at densities ranging from 5,000 to 40,000 cells/well. The plates were incubated for 24 hours at 37° C., 5% CO2 for 24 hours. […]
The effect of the compound on cellular viability was determined with the Sulforhodamine B (SRB) assay, which measures total protein. […] The bound stain was solubilized with 10 mM trizma base and the absorbance was read on a plate reader at […].

[8] = test system: NCI panel of 60 cell lines; test: NCI panel of human tumor cell lines (SRB), Mean-Graph Mid-point; format: cell-based; conditions: read-out: NCI panel MG-MID (Mean-Graph Mid-point, average IC50 over the whole cell panel)
Excerpt: as §6
Cells were grown in RPMI-1640 10% FCS and plated in 96 well micro-titer plates at densities ranging from 5,000 to 40,000 cells/well. The plates were incubated for 24 hours at 37° C., 5% CO2 for 24 hours. Media containing twice the desired final concentration of the compound (5 doses spanning 4 logs) was prepared and 100 μl was added to each well containing 100 μl media plus cells to yield the desired final concentration. The plates were then incubated for an additional 48 hours.
The effect of the compound on cellular viability was determined with the Sulforhodamine B (SRB) assay, which measures total protein. Cells were fixed with cold TCA to a final concentration of 10% and incubated at 4° C. for 60 minutes. The supernatant was discarded and the plates were washed five times with water and air-dried. SRB solution at […] in 1% acetic acid was added to each well and the plates were incubated for 10 minutes at room temperature. The plates were washed five times with 1% acetic acid and air-dried. The bound stain was solubilized with 10 mM trizma base and the absorbance was read on a plate reader at […].

[9] = test system: peripheral blood mononuclear cells (PBMCs); test: Cytotoxicity in PBMCs (MTS assay); format: cell-based, human; conditions: read-out: TC50: 50% cytoxicity (MTS)
Protocol: (§7) The activity of the certain compounds of the invention was evaluated in peripheral blood mononuclear cells (PBMCs) infected with the low passage, clinical isolate HIV-1 ROJO to generate a measure of the efficacy of these compounds in acutely infected cells. The use of these normal human cells allows an estimate of the therapeutic index of these compounds to be made. Fresh PBMCs from two donors were pooled and stimulated with PHA-P for 48-72 hours. The cells were then cultured in the presence of IL-2 to maintain the cell division initiated by the mitogenic signal. The virus was added at a multiplicity of infection of 0.1. The cells were cultured for 7 days post infection prior to the evaluation of efficacy. Viral replication was measured by the level of reverse transcriptase activity in the supernatant and cytotoxicity was measured with the MTS assay.

[10] = test system: HIV-1 ROJO; test: Antiviral activity in PBMCs infected with HIV-1 ROJO (reverse transcriptase); format: cell-based
Protocol: as §7

[11] = HCT-116, 72 h, read-out: HCT-116 IC50 Viability

Structure (SMILES): CC(C)c1nn(-c2c(Cl)cccc2Cl)c2nc(Cc3ccc(OP(=O)(O)O)cc3)[nH]c(=O)c12 [Compound B]
- IC50 [1]: < 1000 nM
- IC50 [2, 11]: < 1000 nM

Structure (SMILES): O=C(Nc1cccc2c1C(=O)c1c-2n[nH]c1-c1ccc(OP(=O)(O)O)cc1)NN1CCOCC1 [J]
- IC50 [1]: < 100 nM
- IC50 [2, 11]: < 1000 nM

- IC50 [3]: < 100 nM
- IC50 [4]: < 10000 nM
- IC50 ([5]; HCT-116, 24 h): < 10 nM
- IC50 ([5]; HCT-116, 48 h): < 100 nM
Structure (SMILES): CC(C)N1CCN(CCOc2ccc(-c3[nH]nc4c3C(=O)c3c(NC(=O)NN5CCOCC5)cccc3-4)cc2)CC1 [E]
- IC50 [6]: > 100 nM

- IC50 ([2]; HCT-116, plus 1 mg/ml alpha acidic glycoprotein and 45 mg/ml human serum albumin, read-out: HCT-116 IC50 Protein adjusted): < 1000 nM
Structure (SMILES): CC(C)c1nn(-c2c(Cl)cc(Cl)cc2Cl)c2nc(Cc3ccc(OCCN4CCOCC4)cc3)[nH]c(=O)c12 [A]
- IC50 [7]: < 1000 nM
- IC50 [8]: < 100 nM

Structure (SMILES): Cc1cn([C@H]2C[C@H](N=[N+]=[N-])[C@@H](CO)O2)c(=O)[nH]c1=O [AZT, reference compound]
- CC50 [9]: > 1000 nM
- TI: TC50/IC50 [10]: >100
- IC50 ([10]; read-out: IC50: 50% inhibition of virus replication measured by reverse transcriptase levels in the supernatant, HIV-1 ROJO, 7 days post infection): < 10 nM
